Converted amounts (≈) assume the structure as drawn.
Tests used:
Solubility (Test F) = assay type: physicochemical; conditions: arithmetic mean if run multiple times
Procedure: The assay was conducted according to the Solubility Assay described in pages 164-167 of Wernevik, J. et al., “A Fully Integrated Assay Panel for Early Drug Metabolism and Pharmacokinetics Profiling”, Assay and Drug Development Technologies, 2020, 18(4), 157-179. Data are reported in Table 36 as solubility ([…]. Where the assay was run multiple times for the same compound, the arithmetic mean is reported.

[1] = Human Liver Microsomal Stability (Test C); assay type: in vitro ADME; conditions: human, liver microsomes
In short: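 CLint (μl/min/mg protein) derived from compound depletion in human liver microsomes following a published standardized early-DMPK protocol; replicate determinations given as arithmetic mean.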

[2] = Rat Hepatocyte Stability (Test E); assay type: in vitro ADME; conditions: rat, hepatocytes, geometric mean if run multiple times
In short: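 Intrinsic clearance in rat hepatocytes, expressed as μl/min/10^6 cells, following the literature integrated DMPK panel method. Repeat determinations combined as geometric mean.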

[3] = Human Hepatocyte Stability (Test D); assay type: in vitro ADME; conditions: human, cryopreserved pooled human hepatocytes (LiverPool 10-Donor), geometric mean if run multiple times
In short: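 Intrinsic clearance (μL/min/10^6 cells), derived as kV/N from the log-linear loss of parent compound. Compound incubated at 37 °C with cryopreserved pooled human hepatocytes, 0.25×10^6 cells in 0.25 mL L-15; dosing solution 100 μM in acetonitrile. Singlicate incubations, cassette LC-MS; repeats reported as geometric mean.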

solubility (Solubility (Test F)) [µM] | microsomal CLint [1] [µL/min/mg] | hepatocyte CLint [2] [µL/min/1e6 cells] | hepatocyte CLint at 1 µM [3] [µL/min/1e6 cells] | SMILES
> 1000 | 7.2 | 16 | 12 | COc1cc(F)c(-c2ccc(C(=O)O)cc2)cc1C(=O)N[C@H]1[C@@H](C(=O)Nc2cccc(S(=O)(=O)C(F)(F)F)c2)[C@@H]2C=C[C@H]1C2 (single isomer, unassigned) [Example 552]
130 (≈ 87.2 µg/mL) | 54 | 35 | 15 | COc1cc(F)c(O[C@H]2CC[C@@](C)(C(=O)O)CC2)cc1C(=O)N[C@@H]1[C@H]2CC[C@H](C2)[C@@H]1C(=O)Nc1cccc(S(=O)(=O)C(F)(F)F)c1 [Example 208, (1S,4s)-4-(2-Fluoro-4-methoxy-5-(((1S,2R,3S,4R)-3-((3-((trifluoromethyl)sulfonyl)phenyl)carbamoyl)bicyclo[2.2.1]heptan-2-yl)carbamoyl)phenoxy)-1-methylcyclohexane-1-carboxylic acid]
45 (≈ 30.7 µg/mL) | 61 | 23 | 21 | COc1cc(F)c(O[C@H]2CC[C@@](C)(C(=O)O)CC2)cc1C(=O)N[C@@H]1[C@H]2CC[C@H](C2)[C@@H]1C(=O)Nc1ccc(F)c(S(F)(F)(F)(F)F)c1 [Example 353]
240 (≈ 160 µg/mL) | 43 | 17 | 14 | COc1cc(F)c(O[C@H]2CC[C@@H](C(=O)O)CC2)cc1C(=O)N[C@@H]1[C@H]2CC[C@H](C2)[C@@H]1C(=O)Nc1ccc(F)c(S(F)(F)(F)(F)F)c1 [Example 433]

From patent publication US11667602B2, “Compounds and their use” (AstraZeneca AB, priority 2020, dated 2023)
